Results published in publication PMC7463999, “Antioxidant, Anti-inflammatory and Neuroprotective Profiles of Novel 1,4-Dihydropyridine Derivatives for the Treatment of Alzheimer’s Disease” (Antioxidants, 2020).
Several values for one entry are separate records, joined by “and”; a condition that tells them apart may be missing. Equal values may be shown once. Read-outs that look alike come from different tables or passages of the source.

Key:
[1] = Oxygen Radical Absorbance Capacity (ORAC) assay; conditions: Trolox equivalents, ORAC of Trolox = 1.0; AAPH, fluorescein
DPPH reduction assay = conditions: DPPH 100 µM, 1 h in the dark
Procedure: The final solution was incubated during 1 h in the dark. […] Results are expressed as a percentage of DPPH reduction by subtracting blank absorbance (Absblank) to sample absorbance (Abssample) and corrected by control absorbance, (Abscontrol, DPPH alone, as expressed below: % DPPH reduction = [100 − ((Abssample − Absblank) × 100/Abscontrol)](1)
Briefly, the compounds under assay (150 µL) at the desired concentration (1, 10, 60 and 100 µM) in methanol/water (80/20) were added to a solution of DPPH in methanol/water (80/20) (150 µL, 100 µM), in a clear bottom 96-well plate, and the final solution was incubated 1 h in the dark. Then, DPPH absorbance of blank (methanol/water), control
Optima plate-reader (BMG Labtech, Ortenberg, Germany) in duplicate.
Results are expressed as % of absorbance (Abs) reduction of control after subtracting blank absorbance, as expressed
% DPPH reduction = [100 – (Abssample-Absblank) x 100]/Abscontrol

[2] = test system: primary glial cultures stimulated with LPS; test: Nitrite production reduction (Griess) in LPS-stimulated mixed primary glial cultures; format: cell-based, rat
[3] = test system: voltage-dependent Ca^2+ channels (VDCC); test: Voltage dependent calcium channels blockade assay (Fluo-4, 70 mM K+); format: cell-based, human; conditions: compounds at 10 μM, SH-SY5Y, basal = 100% response
Procedure: Free cytosolic Ca^2+ was measured using the fluorescence Ca^2+ indicator Fluo-4/AM. SH-SY5Y cells were seeded in 96-well black bottom transparent plates at a density of 60,000 cells per well and cultured until they reach confluence. Cells were incubated with the Ca^2+ sensitive dye Fluo-4/AM at 5 µM in Krebs-HEPES buffer (KH) (145 mM NaCl, 4.9 mM KCl, 1.2 mM MgCl2, 2 mM CaCl2, 10 mM HEPES, 11 mM glucose, pH 7.4), and 0.05% pluronic acid, for 1 h at 37 °C in the dark. Then, cells were washed twice with KH solution to remove the excess of probe and compounds in solution were added. Test compounds at 10 µM were incubated 10 min before K^+ 70 mM was applied to trigger cytosolic Ca^2+ increase. Fluorescence was measured in a fluorescence microplate reader (FLUOstar Optima, BMG, Ortenberg, Baden-Wuerttemberg, Germany) at excitation and emission wavelengths 485 and 520 nm, respectively. To normalize Fluo-4 signals, Triton X-100 (5%) and subsequently MnCl2 1 M were applied to the cells to register maximal and minimal fluorescence, respectively. Data were calculated as a percentage of Fluorescence increment with respect to Fmax − Fmin. The percentage of response was calculated considering basal conditions as 100% response.
Voltage dependent Calcium Channel Blockade Assay
Free cytosolic Ca2+ was measured using the fluorescence Ca2+ indicator Fluo-4/AM.
SH-SY5Y cells were seeded in 96-well black bottom transparent plates at a density of 60,000 cells per well until reaching confluence. Cells were incubated with the Ca2+ sensitive dye fluo-4 AM at 5 µM in Krebs-Hepes buffer (KH) (145 mM NaCl, 4.9 mM KCl, 1.2 mM MgCl2, 2 mM CaCl2, 10 mM HEPES, 11 mM glucose, pH 7.4), and 0.05 % pluronic acid, for 1 h at 37 °C in the dark. Then, cells were washed twice with KH solution to remove the excess of probe and compounds in solution were added. Tested compounds at 10 µM were incubated 10 min before K+ 70 mM was applied to evoke the increment of cytosolic Ca2+. The experiments were analyzed at excitation and emission wavelengths of 485 and 520 nm, respectively, and fluorescence was measured in a fluorescence microplate reader (FLUOstar Optima, BMG, Germany). To normalize Fluo-4 signals, Triton X-100 (5 %) and subsequently MnCl2 1 M were applied to cells for registering both maximal and minimal fluorescence, respectively. Data were calculated as % F increment respect to Fmax – Fmin. % of blockade was calculated considering basal conditions as 100 % response.
Then, the donor filter plate was carefully put on the acceptor plate to form a “sandwich”, which was left undisturbed for 4 h at 25 °C. During this time, the compounds diffused from the donor plate through the polar brain lipid membrane (area = 0.28 cm2) into the acceptor plate. After incubation, the donor plate was carefully removed. UV plate reader determined the concentration of compounds and commercial drugs in both acceptor and […]

[4] = Blood-brain barrier permeation assay (PAMPA), porcine brain lipid; format: in vitro ADME
[5] = test system: blood-brain barrier (passive diffusion); test: as above; format: in vitro ADME; conditions: PAMPA; 100 µM, PBS pH 7.4, 4 h at 25 °C, mean ± SEM; read-out: PAMPA Pe
rat hippocampal slices = test: ROS production (H2DCFDA) in rat hippocampal slices treated with okadaic acid; format: cell-based; conditions: OA 1 μM + compound 10 μM, 6 h
[6] = test system: neuroblastoma cell line SH-SY5Y; test: Cytotoxicity (neurotoxicity) in SH-SY5Y, MTT; conditions: 24 h
Procedure: LD50 in SH-SY5Y and primary glial culture cells
(§1) cell line SH-SY5Y and primary glial cultures. Viability was measured as
(§2) MTT reduction in presence of increasing concentrations of derivatives.
(§3) Values are expressed as LD50 calculated from dose-response curves of four
(§4) different concentrations. Data are expressed as mean  SEM of five
different experiments in triplicate.
(§5) SH-SY5Y or primary glial cells were cultured in 96-well plates for 24 h. Then, cells
(§6) were treated with the compounds at 10, 30 and 100 µM in the corresponding culture media
(§7) with 1 % FBS After 24 h, cell viability was assessed by the MTT-reduction assay. Control
(§8) cells were incubated with the same concentration of DMSO (0.1 % final concentration)
Viability assay by MTT-reduction
(§9) SH-SY5Y, primary glial culture cells and rat hippocampal slices viability was
(§10) measured by the MTT assay [11]. This method is based on the cleavage of the tetrazolium
(§11) ring of MTT by active dehydrogenases, generating a formazan precipitate. At the end of
(§12) the neuroprotection or toxicity experiments, an MTT solution was added to each well to
(§13) reach a final concentration of 0.5 mg/mL. After 2 additional hours of incubation, the
(§14) solution was replaced by 100 or 300 µL of DMSO to solubilize the formazan precipitate.
(§15) in control cells was considered as 100 % of cell survival and used to reference all

GSK-3β = GSK-3β (Homo sapiens, UniProt P49841); test: GSK-3β inhibition, Kinase-Glo luminescence assay
Chain of GSK-3β (P49841 whole entry): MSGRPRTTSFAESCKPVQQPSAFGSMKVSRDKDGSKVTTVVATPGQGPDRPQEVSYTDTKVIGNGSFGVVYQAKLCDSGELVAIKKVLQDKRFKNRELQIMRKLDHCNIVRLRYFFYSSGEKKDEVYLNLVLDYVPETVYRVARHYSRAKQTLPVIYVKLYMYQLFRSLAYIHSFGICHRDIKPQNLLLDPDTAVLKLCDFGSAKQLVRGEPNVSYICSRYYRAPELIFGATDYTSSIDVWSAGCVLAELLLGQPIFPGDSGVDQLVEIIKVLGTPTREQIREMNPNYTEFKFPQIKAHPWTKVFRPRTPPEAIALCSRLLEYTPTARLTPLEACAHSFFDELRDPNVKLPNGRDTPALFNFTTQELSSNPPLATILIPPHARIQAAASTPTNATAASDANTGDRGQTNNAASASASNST

primary glial cultures = test: Cytotoxicity (gliotoxicity) in primary glial cultures, MTT; conditions: 24 h
Procedure: as §1, §2, §3, §4
different experiments in triplicate.
Mixed glial cultures were obtained from cerebral cortex of 2-5-day-old Sprague-Dawley rats. After removal of blood vessels and meninges, the forebrains were dissociated in DMEM/F12 medium. After mechanical dissociation, cells were plated (3x10^5 cells/ml) in DMEM/F12 medium with 20 % fetal bovine serum (FBS) and 1 % penicillin/streptomycin (10,000 units), at 37 °C and in a 5 % CO2-supplemented air atmosphere. After 5 days, medium was substituted by DMEM/F12 medium with 10 %
FBS. Cells were cultured for 7-10 days before treatment.
as §5, §6, §7, §8
Viability assay by MTT-reduction
as §9
measured by the MTT assay [11].

[7] = test system: SH-SY5Y human neuroblastoma cells; test: Neuroprotection against okadaic acid (tau hyperphosphorylation), MTT; conditions: Homo sapiens, SH-SY5Y, 18 h, read-out: cell viability (percentage survival), okadaic acid toxicity
Procedure: (§16) Cells were pre-incubated with the corresponding compound at 1 μM in neuroblastoma culture medium. After 24 h, the medium was removed and replaced with 1% FBS neuroblastoma culture media containing the corresponding compound at 1 µM and the toxic stimuli, namely a mixture of rotenone and oligomycin A (R/O, 30 μM/10 μM, respectively), okadaic acid (OA) at 20 nM or a high concentration of KCl (70 mM). Cells were co-incubated for further 24 h with the R/O mixture or KCl solution, or 18 h with the OA solution. […] Control cells were incubated with the same amount of dimethyl sulfoxide (DMSO) without any drug. After the co-incubation period, cell viability was assessed by the 3-(4,5-dimethylthiazol-2-yl)-2,5-diphenyltetrazolium bromide (MTT) reduction method [56]; basal condition was considered as 100% survival.
(§17) Neuroprotection in the SH-SY5Y neuroblastoma cell line
(§18) A pre- and co-incubation protocol was followed. Cells were pre-incubated with the
(§19) corresponding compound at 1 M in neuroblastoma culture medium. After 24 h, the
(§20) medium was removed and replaced with 1% FBS neuroblastoma culture media
(§21) containing the corresponding compound at 1 µM and the toxic stimuli, namely a mixture
(§22) of rotenone and oligomycin A (30 M/10 M respectively), okadaic acid at 20 nM or a
(§23) high concentration of potassium chloride (70 mM). Cells were co-incubated for further
(§24) 24 h with the rotenone and oligomycin A or potassium chloride solution, or 18 h with the
(§25) okadaic acid solution. Control cells were incubated with the same amount of DMSO
(§26) and reference compounds in the rotenone-oligomycin A, okadaic acid or high
(§27) concentration of potassium models respectively. After the co-incubation period, cell
(§28) viability was assessed by the MTT-reduction method [11] considering basal conditions
Viability assay by MTT-reduction
as §9, §10, §11, §12, §13, §14, §15
(§29) treatments. The percentage of protection was calculated as follows: the percentage of cell
(§30) survival obtained with the toxic stimuli-treated cells subtracted to 100 was normalized to
(§31) 100 % of cell death. The percentage of protection was obtained by subtracting the
(§32) percentage of cell death in presence of the tested compound to 100 %.

[8] = test system: SH-SY5Y human neuroblastoma cells; test: Neuroprotection against rotenone/oligomycin A (oxidative stress), MTT; conditions: 1 μM, rotenone 30 μM / oligomycin A 10 μM, 24 h
Procedure: as §16, §17, §18, §19, §20, §21, §22, §23, §24, §25, §26, §27, §28
Viability assay by MTT-reduction
as §9, §10, §11, §12, §13, §14, §15, §29, §30, §31, §32

[9] = test system: primary glial cultures stimulated with LPS; conditions: read-out: EC50 Nitrite Reduction; LPS 1 μg/mL; cited from earlier work

SMILES | ORAC (T. Eq.) [1] | IC50 (DPPH reduction assay) [µM] | EC50 ([2]; Rattus norvegicus, LPS 1 μg/mL, 24 h pre-incubation, 18 h co-incubation) [µM] | fold more potent as anti-inflammatory than 4f ([2]; ratio of nitrite reduction EC50 values) [fold] | VDCC % Response [3] | PAMPA Prediction ([4]; BBB permeability class from Pe) | BBB permeation prediction in words ([4]; PAMPA) | Papp at 4 h, 100 µM [5] [×10⁻⁶ cm/s] | free radical production (H2DCFDA fluorescence) (rat hippocampal slices) | SH-SY5Y LD50 [6] [µM] | IC50 (GSK-3β) [µM] | Ki (GSK-3β) [µM] | Glial cultures LD50 (primary glial cultures) [µM] | viability at 1 µM [7] [%] | percentage of protection, R/O toxicity [8] [%] | EC50 [9] [µM]
Cc1[nH]nc2c1C(c1ccc(Br)cc1)C(C#N)=C(N)N2 (stereo not shown) [4g, 6-amino-4-(4-bromophenyl)-3-methyl-4,7-dihydro-2H-pyrazolo[3,4-b]pyridine-5-carbonitrile] | 0.96 T. Eq. and 0.96 ± 0.05 T. Eq. | 24.1 ± 3.74 | 4.5 ± 0.6 | 2.2 | 62% and 62.1 ± 1.6% | CNS+ | predicted to cross the BBB | 7.2 ± 2.4 | reduced free radical production to basal conditions | > 100 | 2.35 ± 1.1 | 1.65 | > 100 | 86.7 | 59.7 | –
C[S+]([O-])CCCCN=C=S (stereo not shown) [Sulforaphane] | – | – | – | – | – | – | – | – | – | – | – | – | – | – | – | 1.4 ± 0.3
